Measured values published in paper PMC8745342, “In Vitro and In Silico Kinetic Studies of Patented 1,7-diEthyl and 1,7-diMethyl Aminoalkanol Derivatives as New Inhibitors of Acetylcholinesterase” (International Journal of Molecular Sciences, 2021).

Key:
[1] = tested on: AChE; settings: model AChE inhibitors; read-out: IC50 (inhibition potency); cited from earlier work
[2] = target: T1, Acetylcholinesterase human (AChE) (Homo sapiens, UniProt P22303); assay: AChE inhibition kinetics, Ellman's method combined with capillary electrophoresis; assay type: biochemical; settings: for Tilt Angle of Lineweaver-Burk line: acetylthiocholine 0.36–46.00 mM, n = 6
T1 construct: purchased Sigma-Aldrich (Poznań, Poland)
T1 sequence (P22303 32-614): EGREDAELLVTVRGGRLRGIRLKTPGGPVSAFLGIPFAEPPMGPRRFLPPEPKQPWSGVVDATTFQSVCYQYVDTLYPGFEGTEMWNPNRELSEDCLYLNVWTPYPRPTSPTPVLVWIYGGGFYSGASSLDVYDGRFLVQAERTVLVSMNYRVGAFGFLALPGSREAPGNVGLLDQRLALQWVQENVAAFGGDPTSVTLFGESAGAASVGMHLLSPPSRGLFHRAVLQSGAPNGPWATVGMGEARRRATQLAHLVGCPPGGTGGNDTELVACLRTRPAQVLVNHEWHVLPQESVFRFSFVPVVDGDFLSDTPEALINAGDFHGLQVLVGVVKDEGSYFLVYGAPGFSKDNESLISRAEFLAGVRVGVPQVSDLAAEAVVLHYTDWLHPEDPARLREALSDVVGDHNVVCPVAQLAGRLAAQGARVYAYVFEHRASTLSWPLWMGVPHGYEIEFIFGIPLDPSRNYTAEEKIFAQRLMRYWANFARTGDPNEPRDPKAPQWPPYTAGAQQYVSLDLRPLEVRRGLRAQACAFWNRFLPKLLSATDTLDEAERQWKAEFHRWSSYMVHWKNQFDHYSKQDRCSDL
Text: In this work, we used the combined Ellman’s method with the capillary electrophoresis method developed by us for the determination of 4,4-dithio-bis-acid nitrobenzoic (DBAN) (main enzyme reaction product) in the presence of acetylthiocholine (ACth), 5-thio-2-nitrobenzoic acid (NTB), 5,5′-dithio-bis-2-nitrobenzoic acid (DTNB), acetylcholinesterase (AChE) and inhibitors (I), (II), (III) and (IV) of acetylcholinesterase. For the development of this method, we optimized the buffer pH, separating background electrolyte (BGE) concentration, wavelength, temperature, and voltage. […] All these separation systems were tested to achieve the best separation parameters, resolution, and analysis time for all components in the reaction mixture. […] Separation was carried out at 15 kV. Each sample was added to the capillary under hydrodynamic injection.
The samples were injected under 5 psi pressure for 3 s. The experiments were performed under constant current conditions (85 μA). […] Before the assay, the capillary was conditioned with 0.1 M NaOH for 10 min at 10 psi and with H2O for 10 min at 10 psi. Then, it was electro conditioned with the running buffer for 20 min at +10 kV and pressure-conditioned with the running buffer for 10 min at 10 psi. Before each injection, the capillary was washed with 1 M NaOH for 2 min, then with H2O for 2 min, and finally with BGE for 2 min. At the end of each working day, the capillary was rinsed for 10 min with 0.1 M NaOH, 10 min with BGE, and 10 min with deionized water at 15 psi. Then, the capillary was exposed to air for 10 min at 20 psi and left empty.
Sample mixtures containing 4,4-dithio-bis-acid nitrobenzoic (DBAN) (main enzyme reaction product) in the presence of acetylthiocholine (ACth), 5-thio-2-nitrobenzoic acid (NTB), 5,5′-dithio-bis-2-nitrobenzoic acid (DTNB), acetylcholinesterase (AChE) and inhibitors (I), (II), (III) and (IV) were introduced automatically by pressure injection (with 2 psi pressure for 5 s on the sample solution). At the day’s end, vials with anode and cathode buffer were emptied and running buffer was filled again at the start of the next day before the analysis.
Acetylcholinesterase activity was determined according to the method by Ellman et al. and according to the procedure described by Rosilene R et al. but slightly modified. […] The tubes containing solutions were preincubated for 2 min at 25 °C. Then, 0.1 mL […] AChE was introduced into tubes 1–9, at an interval of 1 min. All 10 samples were incubated for 3 min at 25 °C. After incubation, the analytical samples were introduced into the capillary.
The inhibition constants (Ki) were calculated from the plotted Lineweaver–Burk curves for the four concentrations of the inhibitors (I), (II), (III) and (IV). The method was based on two steps (Figure 8).

[3] = inhibitor 0.08 mM, acetylthiocholine 0.36 mM
[4] = inhibitor 0.08 mM, acetylthiocholine 0.72 mM
[5] = inhibitor 0.08 mM, acetylthiocholine 1.44 mM
[6] = inhibitor 0.08 mM, acetylthiocholine 2.88 mM
[7] = inhibitor 0.08 mM, acetylthiocholine 5.75 mM
[8] = inhibitor 0.08 mM, acetylthiocholine 11.50 mM
[9] = inhibitor 0.08 mM, acetylthiocholine 23.00 mM
[10] = inhibitor 0.08 mM, acetylthiocholine 34.50 mM
[11] = inhibitor 0.08 mM, acetylthiocholine 46.00 mM

SMILES: CCC12C(=O)C(CC)(C(c3ccccc3)=C1c1ccccc1)C1C(=O)N(CC(O)CN(C)C)C(=O)C12 (centres unmarked) [Compound (II)]
- type of AChE inhibition ([2]; from Lineweaver-Burk plots, Km and Vmax): competitive
- IC50 ([2]; from activity (%) versus inhibitor concentration plots): 39 ± 1 µM
- Vmax ([2]; inhibitor 0.01 mM): 0.62 ± 0.03 mM/min
- Tilt Angle of Lineweaver-Burk line ([2]; inhibitor 0.01 mM): 59.46 ± 0.03 °
- Vmax ([2]; inhibitor 0.02 mM): 0.63 ± 0.02 mM/min
- Tilt Angle of Lineweaver-Burk line ([2]; inhibitor 0.02 mM): 59.60 ± 0.08 °
- Vmax ([2]; inhibitor 0.04 mM): 0.65 ± 0.01 mM/min
- Tilt Angle of Lineweaver-Burk line ([2]; inhibitor 0.04 mM): 65.19 ± 0.06 °
- Vmax ([2]; inhibitor 0.06 mM): 0.65 ± 0.01 mM/min
- Tilt Angle of Lineweaver-Burk line ([2]; inhibitor 0.06 mM): 69.02 ± 0.05 °
- Vmax ([2]; inhibitor 0.08 mM): 0.65 ± 0.01 mM/min
- 1/Vo, mean [2, 3]: 9.19 min/mM
- Peak area of product (4,4-dithio-bis-acid nitrobenzoic), mean [2, 3]: 56086
- V0 (reaction speed), mean [2, 3]: 0.11 mM/min
- 1/Vo, mean [2, 4]: 5.40 min/mM
- Peak area of product (4,4-dithio-bis-acid nitrobenzoic), mean [2, 4]: 102853
- V0 (reaction speed), mean [2, 4]: 0.19 mM/min
- 1/Vo, mean [2, 5]: 3.50 min/mM
- Peak area of product (4,4-dithio-bis-acid nitrobenzoic), mean [2, 5]: 145167
- V0 (reaction speed), mean [2, 5]: 0.29 mM/min
- amount of 4,4-dithio-bis-acid nitrobenzoic (DBAN) product in the presence of inhibitor ([2]; inhibitor 0.08 mM, acetylthiocholine 1.44 mM, 0.66 mM without inhibitors): 0.58 mM
- 1/Vo, mean [2, 6]: 2.30 min/mM
- Peak area of product (4,4-dithio-bis-acid nitrobenzoic), mean [2, 6]: 192894
- V0 (reaction speed), mean [2, 6]: 0.43 mM/min
- 1/Vo, mean [2, 7]: 2.05 min/mM
- Peak area of product (4,4-dithio-bis-acid nitrobenzoic), mean [2, 7]: 233453
- V0 (reaction speed), mean [2, 7]: 0.49 mM/min
- 1/Vo, mean [2, 8]: 1.80 min/mM
- Peak area of product (4,4-dithio-bis-acid nitrobenzoic), mean [2, 8]: 260635
- V0 (reaction speed), mean [2, 8]: 0.56 mM/min
- 1/Vo, mean [2, 9]: 1.70 min/mM
- Peak area of product (4,4-dithio-bis-acid nitrobenzoic), mean [2, 9]: 279258
- V0 (reaction speed), mean [2, 9]: 0.59 mM/min
- 1/Vo, mean [2, 10]: 1.55 min/mM
- Peak area of product (4,4-dithio-bis-acid nitrobenzoic), mean [2, 10]: 282281
- V0 (reaction speed), mean [2, 10]: 0.65 mM/min
- 1/Vo, mean [2, 11]: 1.50 min/mM
- Peak area of product (4,4-dithio-bis-acid nitrobenzoic), mean [2, 11]: 283597
- V0 (reaction speed), mean [2, 11]: 0.67 mM/min
- Tilt Angle of Lineweaver-Burk line ([2]; inhibitor 0.08 mM): 70.02 ± 0.04 °
